# Test results taken from article PMC8381505, “Phase 1 clinical trial of the PI3Kδ inhibitor YY-20394 in patients with B-cell hematological malignancies” (Journal of Hematology & Oncology, 2021).
# Where two headings read alike, the source gives them in different places.
# How the values were obtained:
# [1] = Pharmacokinetics in patients after multiple administrations; format: in vivo, human; settings: for AUC(0-inf) / AUC(0-t) / Cmax / Tmax / Vd/F / half-life / MRT last: human, serum, oral; for MRT last: read-out: MRT0→t
# Source text: Additional File 6: Table S4. Mean pharmacokinetic parameters of patients after multiple administrations in each dosage group
# [2] = system: PI3Kα; experiment: PI3K isoform selectivity, α versus δ; format: biochemical
# [3] = system: relapsed or refractory B-cell malignancies; experiment: Phase 1 dose escalation: efficacy (ORR, DCR, PFS) in patients; format: in vivo, human
# Experimental: Patients ≥ 18 years old with refractory or relapsed B-cell malignancies were enrolled from November, 2017 to completion of the trial in November, 2019. Inclusion and exclusion criteria are listed in Additional file 2 and baseline patient characteristics in Additional file 3: Table S2.
# During dose escalation, patients received YY-20394 tablets q.d. at dosages of 20, 40, 80, 140 or 200 mg. The maximum tolerated dose (MTD), dose escalation phase and dose-limiting toxicity (DLT) as well as hematological toxicity classifications are described in Additional file 4. The primary endpoints were safety, tolerability and the MTD of YY-20394. Secondary endpoints were PK parameters and efficacy. Response criteria followed the revised International Research Working Group (IRWG) for non-Hodgkin lymphomas (NHL), and the International Working Group on Chronic Lymphocytic Leukemia (IWCLL) criteria for CLL [8]. Efficacy determinations were the objective response rate (ORR), disease control rate (DCR), complete remission (CR), partial remission (PR), stable disease (SD), progressive disease (PD) and progression-free survival (PFS).
# [4] = biological target: PI3Kδ (Homo sapiens, UniProt O00329); experiment: PI3Kδ kinase inhibition; format: biochemical
# Sequence of PI3Kδ (O00329 whole entry): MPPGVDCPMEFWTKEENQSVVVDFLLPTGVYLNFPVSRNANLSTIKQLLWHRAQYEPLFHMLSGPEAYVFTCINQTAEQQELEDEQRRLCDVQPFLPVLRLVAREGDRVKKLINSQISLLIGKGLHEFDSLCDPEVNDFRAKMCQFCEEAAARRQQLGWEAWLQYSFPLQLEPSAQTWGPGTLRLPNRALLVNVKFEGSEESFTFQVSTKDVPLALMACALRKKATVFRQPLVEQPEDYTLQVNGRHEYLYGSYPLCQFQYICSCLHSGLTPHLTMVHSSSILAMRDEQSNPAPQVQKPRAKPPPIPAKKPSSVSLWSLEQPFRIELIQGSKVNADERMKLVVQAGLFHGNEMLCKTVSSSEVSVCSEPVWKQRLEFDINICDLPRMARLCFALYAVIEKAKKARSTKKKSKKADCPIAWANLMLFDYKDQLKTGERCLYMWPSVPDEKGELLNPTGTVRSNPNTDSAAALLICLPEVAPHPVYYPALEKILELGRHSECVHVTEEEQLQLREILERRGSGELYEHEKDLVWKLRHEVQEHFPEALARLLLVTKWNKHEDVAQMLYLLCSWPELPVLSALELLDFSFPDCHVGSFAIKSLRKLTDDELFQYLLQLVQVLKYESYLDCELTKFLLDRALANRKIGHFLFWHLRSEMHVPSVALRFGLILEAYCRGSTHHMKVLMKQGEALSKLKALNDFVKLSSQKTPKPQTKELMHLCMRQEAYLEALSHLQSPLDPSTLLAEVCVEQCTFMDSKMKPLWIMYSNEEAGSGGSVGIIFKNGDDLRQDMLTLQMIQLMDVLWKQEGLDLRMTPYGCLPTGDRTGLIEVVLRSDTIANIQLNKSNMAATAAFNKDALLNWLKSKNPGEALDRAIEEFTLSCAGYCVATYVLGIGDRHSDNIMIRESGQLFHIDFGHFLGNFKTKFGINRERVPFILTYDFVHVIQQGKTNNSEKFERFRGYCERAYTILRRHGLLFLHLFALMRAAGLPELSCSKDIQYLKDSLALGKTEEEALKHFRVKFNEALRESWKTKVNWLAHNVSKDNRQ
# Sequence of PI3Kδ (P27986 whole entry partner): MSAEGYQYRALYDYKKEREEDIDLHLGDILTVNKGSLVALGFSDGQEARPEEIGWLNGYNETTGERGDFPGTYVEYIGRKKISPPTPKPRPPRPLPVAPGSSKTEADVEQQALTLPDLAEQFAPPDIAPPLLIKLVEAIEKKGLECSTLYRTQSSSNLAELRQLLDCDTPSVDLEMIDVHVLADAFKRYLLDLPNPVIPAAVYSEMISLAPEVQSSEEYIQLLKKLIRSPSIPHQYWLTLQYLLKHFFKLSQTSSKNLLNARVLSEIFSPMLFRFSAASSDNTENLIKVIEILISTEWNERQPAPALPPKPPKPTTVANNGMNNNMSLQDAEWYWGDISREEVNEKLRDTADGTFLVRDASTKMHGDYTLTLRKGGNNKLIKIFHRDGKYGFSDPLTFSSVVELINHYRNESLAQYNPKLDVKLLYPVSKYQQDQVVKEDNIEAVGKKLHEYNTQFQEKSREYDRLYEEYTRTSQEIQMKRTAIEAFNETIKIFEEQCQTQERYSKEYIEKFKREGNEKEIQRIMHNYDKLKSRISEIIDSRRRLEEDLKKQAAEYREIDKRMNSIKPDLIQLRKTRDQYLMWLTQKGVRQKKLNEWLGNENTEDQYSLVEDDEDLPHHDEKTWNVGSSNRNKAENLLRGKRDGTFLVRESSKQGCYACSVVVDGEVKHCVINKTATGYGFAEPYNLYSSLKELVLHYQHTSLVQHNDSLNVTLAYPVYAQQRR
# [5] = system: basophil activation; experiment: Inhibition of basophil activation in vitro; format: cell-based; settings: at the serum concentration produced by the 80 mg dose level
# [6] = Pharmacokinetics in patients after a single dose; format: in vivo, human; settings: for AUC(0-inf) / AUC(0-t) / Cmax / Tmax / Vd/F / half-life / MRT last / MRT inf: human, serum, oral; for AUC(0-inf) / AUC(0-t) / Cmax / Tmax / Vd/F / half-life / MRT last / MRT inf / CL/F: single dose; for MRT last: read-out: MRT0→t; for MRT inf: read-out: MRT0→∞
# Source text: Additional File 5: Table S3. Mean pharmacokinetic parameters of patients after a single dose in each dosage group
# [7] = system: PI3Kγ
# [8] = 10 FL patients, 9/10, 95% CI 71.4, 100.0
# [9] = number of patients of 25 evaluable
smiles,measurement,setting,value
"COc1ncc(-c2nc(N3CCOCC3)nc3c(CN4CCC(C(C)(C)O)CC4)cc(F)cc23)cc1NS(C)(=O)=O [YY-20394, N-[5-[6-fluoro-8-[[4-(1-hydroxy-1-methylethyl)-1-piperidinyl]methyl]-2-(4-morpholinyl)-4-quinazolinyl]-2-methoxy-3-pyridinyl]-methanesulfonamide]",CL/F,"[1]; 20 mg, mean",16.3 L/h
same,Cmin,"[1]; 20 mg, mean",28.7 ng/mL
same,Css,"[1]; 20 mg, mean",51.0 ng/mL
same,CL/F,"[1]; 40 mg, mean ± SD",13.4 ± 3.7 L/h
same,Cmin,"[1]; 40 mg, mean ± SD",73.0 ± 32.5 ng/mL
same,Css,"[1]; 40 mg, mean ± SD",132.7 ± 43.0 ng/mL
same,CL/F,"[1]; 80 mg, mean ± SD",11.1 ± 3.1 L/h
same,Cmin,"[1]; 80 mg, mean ± SD",180.5 ± 74.5 ng/mL
same,Css,"[1]; 80 mg, mean ± SD",325.7 ± 97.8 ng/mL
same,CL/F,"[1]; 140 mg, mean ± SD",9.1 ± 0.6 L/h
same,Cmin,"[1]; 140 mg, mean ± SD",359.6 ± 31.5 ng/mL
same,Css,"[1]; 140 mg, mean ± SD",642.3 ± 40.2 ng/mL
same,CL/F,"[1]; 200 mg, mean ± SD",9.4 ± 2.2 L/h
same,Cmin,"[1]; 200 mg, mean ± SD",472.4 ± 71.6 ng/mL
same,Css,"[1]; 200 mg, mean ± SD",918.6 ± 201.7 ng/mL
same,"exposure (Cmax, AUC0-t, AUC0-∞) versus dose",[1]; 20 to 200 mg,increased with dosage
same,AUC(0-inf),"[1]; 20 mg, mean",4010 ng·h/mL
same,AUC(0-t),"[1]; 20 mg, mean",1220 ng·h/mL
same,Cmax,"[1]; 20 mg, mean",94.6 ng/mL
same,Tmax,"[1]; 20 mg, mean",4 h
same,Vd/F,"[1]; 20 mg, mean",930 L
same,half-life,"[1]; 20 mg, mean",39.5 h
same,MRT last,"[1]; 20 mg, mean",65.7 h
same,AUC(0-inf),"[1]; 40 mg, mean ± SD",5500 ng·h/mL
same,AUC(0-t),"[1]; 40 mg, mean ± SD",3190 ng·h/mL
same,Cmax,"[1]; 40 mg, mean ± SD",208 ± 58.3 ng/mL
same,Tmax,"[1]; 40 mg, mean ± SD",2.7 ± 1.2 h
same,Vd/F,"[1]; 40 mg, mean ± SD",392 ± 228 L
same,half-life,"[1]; 40 mg, mean ± SD",19.7 ± 7.2 h
same,MRT last,"[1]; 40 mg, mean ± SD",28.1 ± 10.5 h
same,AUC(0-inf),"[1]; 80 mg, mean ± SD",16600 ng·h/mL
same,AUC(0-t),"[1]; 80 mg, mean ± SD",7820 ng·h/mL
same,Cmax,"[1]; 80 mg, mean ± SD",529 ± 170 ng/mL
same,Tmax,"[1]; 80 mg, mean ± SD",2.4 ± 1.7 h
same,Vd/F,"[1]; 80 mg, mean ± SD",388 ± 392 L
same,half-life,"[1]; 80 mg, mean ± SD",25.3 ± 25.5 h
same,MRT last,"[1]; 80 mg, mean ± SD",36.4 ± 37.6 h
same,AUC(0-inf),"[1]; 140 mg, mean ± SD",24300 ng·h/mL
same,AUC(0-t),"[1]; 140 mg, mean ± SD",15400 ng·h/mL
same,Cmax,"[1]; 140 mg, mean ± SD",1190 ng/mL
same,Tmax,"[1]; 140 mg, mean ± SD",3.7 ± 2.5 h
same,Vd/F,"[1]; 140 mg, mean ± SD",215 ± 10 L
same,half-life,"[1]; 140 mg, mean ± SD",16.4 ± 0.3 h
same,MRT last,"[1]; 140 mg, mean ± SD",23.4 ± 1.5 h
same,AUC(0-inf),"[1]; 200 mg, mean ± SD",36300 ng·h/mL
same,AUC(0-t),"[1]; 200 mg, mean ± SD",22000 ng·h/mL
same,Cmax,"[1]; 200 mg, mean ± SD",1610 ng/mL
same,Tmax,"[1]; 200 mg, mean ± SD",2 ± 1.5 h
same,Vd/F,"[1]; 200 mg, mean ± SD",239 ± 110 L
same,half-life,"[1]; 200 mg, mean ± SD",17.5 ± 6.3 h
same,MRT last,"[1]; 200 mg, mean ± SD",25.3 ± 8.8 h
same,Ratio of IC50 α/δ,[2],252
same,longest treatment duration,"[3]; 40 mg, CLL/SLL patient",36 months
same,"median PFS time, follicular lymphoma",[3]; 10 FL patients,300 days
same,"DCR, follicular lymphoma",[3]; [8],90%
same,"ORR, follicular lymphoma",[3]; [8],90%
same,overall ORR,"[3]; 25 evaluable patients, 16/25, 95% CI 45.2, 82.8%",64.0%
same,disease control rate (DCR),"[3]; 25 evaluable patients, 18/25, 95% CI 54.4, 89.6%",72.0%
same,median PFS time,[3]; all evaluable patients combined,255 days
same,"CR, follicular lymphoma","[3]; number of FL patients, 80 mg",3
same,"PD, follicular lymphoma","[3]; number of FL patients, 200 mg",1
same,"PR, follicular lymphoma","[3]; number of FL patients, 1/40 mg and 5/80 mg",6
same,complete remission (CR),[3]; [9],5
same,partial remission (PR),[3]; [9],11
same,progressive disease (PD),[3]; [9],7
same,durable response,"[3]; one PR patient with CLL/SLL, 40 mg q.d.",around 36 months
same,IC50,[4],4.6 nM
same,inhibition of basophil activation in vitro,[5],90%
same,AUC(0-inf),"[6]; 20 mg, mean",1390 ng·h/mL
same,AUC(0-t),"[6]; 20 mg, mean",1140 ng·h/mL
same,Cmax,"[6]; 20 mg, mean",39.3 ng/mL
same,Tmax,"[6]; 20 mg, mean",4 h
same,Vd/F,"[6]; 20 mg, mean",576 L
same,half-life,"[6]; 20 mg, mean",27.8 h
same,MRT last,"[6]; 20 mg, mean",25 h
same,MRT inf,"[6]; 20 mg, mean",40.7 h
same,AUC(0-inf),"[6]; 40 mg, mean ± SD",2410 ng·h/mL
same,AUC(0-t),"[6]; 40 mg, mean ± SD",2270 ng·h/mL
same,Cmax,"[6]; 40 mg, mean ± SD",148 ± 24.5 ng/mL
same,Tmax,"[6]; 40 mg, mean ± SD",1.8 ± 0.3 h
same,Vd/F,"[6]; 40 mg, mean ± SD",445 ± 100 L
same,half-life,"[6]; 40 mg, mean ± SD",17.8 ± 1.4 h
same,MRT last,"[6]; 40 mg, mean ± SD",18 ± 0.9 h
same,MRT inf,"[6]; 40 mg, mean ± SD",22.4 ± 1.3 h
same,AUC(0-inf),"[6]; 80 mg, mean ± SD",6880 ng·h/mL
same,AUC(0-t),"[6]; 80 mg, mean ± SD",6510 ng·h/mL
same,Cmax,"[6]; 80 mg, mean ± SD",347 ± 90.2 ng/mL
same,Tmax,"[6]; 80 mg, mean ± SD",2.7 ± 1.5 h
same,Vd/F,"[6]; 80 mg, mean ± SD",302 ± 70.4 L
same,half-life,"[6]; 80 mg, mean ± SD",17.2 ± 1.8 h
same,MRT last,"[6]; 80 mg, mean ± SD",18.6 ± 1.9 h
same,MRT inf,"[6]; 80 mg, mean ± SD",22.7 ± 3.1 h
same,AUC(0-inf),"[6]; 140 mg, mean ± SD",15300 ng·h/mL
same,AUC(0-t),"[6]; 140 mg, mean ± SD",14200 ng·h/mL
same,Cmax,"[6]; 140 mg, mean ± SD",854 ± 289 ng/mL
same,Tmax,"[6]; 140 mg, mean ± SD",2 ± 1.7 h
same,Vd/F,"[6]; 140 mg, mean ± SD",236 ± 37.6 L
same,half-life,"[6]; 140 mg, mean ± SD",18 ± 3.6 h
same,MRT last,"[6]; 140 mg, mean ± SD",19.1 ± 3.6 h
same,MRT inf,"[6]; 140 mg, mean ± SD",24.8 ± 6.5 h
same,AUC(0-inf),"[6]; 200 mg, mean ± SD",15000 ng·h/mL
same,AUC(0-t),"[6]; 200 mg, mean ± SD",13100 ng·h/mL
same,Cmax,"[6]; 200 mg, mean ± SD",641 ± 378 ng/mL
same,Tmax,"[6]; 200 mg, mean ± SD",9.4 ± 10.1 h
same,Vd/F,"[6]; 200 mg, mean ± SD",318 ± 92.2 L
same,half-life,"[6]; 200 mg, mean ± SD",16 ± 1.9 h
same,MRT last,"[6]; 200 mg, mean ± SD",21.5 ± 6.4 h
same,MRT inf,"[6]; 200 mg, mean ± SD",21.8 ± 4 h
same,"in vivo exposure (Cmax, AUC0-t, AUC0-∞) versus dose","[6]; single administrations, 20 to 140 mg",increased proportionally in a dose-dependent manner
same,CL/F,"[6]; 20 mg, mean",14.4 L/h
same,CL/F,"[6]; 40 mg, mean ± SD",17.6 ± 4.8 L/h
same,CL/F,"[6]; 80 mg, mean ± SD",12.2 ± 2.6 L/h
same,CL/F,"[6]; 140 mg, mean ± SD",9.2 ± 0.5 L/h
same,CL/F,"[6]; 200 mg, mean ± SD",13.6 ± 2.4 L/h
same,Ratio of IC50 γ/δ,[7],1125
same,kinase inhibition profile more PI3Kδ-selective,"[7]; PI3Kδ versus PI3Kγ, compared with idelalisib",~2 orders of magnitude
